What all share (parameters): scale not given: the % may be the effect or the level left
For assay [1], the target named is Casein kinase I isoform gamma-2 (Homo sapiens) (UniProt P78368). The assay is described as follows: Inhibition of human CK1g2 assessed as enzyme activity at 1 uM using KRRRAL[pS]VASLPGL as substrate preincubated for 20 mins followed by [gamma-33P]-ATP addition and measured after 120 mins by radiometric Hot-SpotSM Kinase assay relative to control.
Assay [2] addresses Dual specificity protein kinase CLK1 (Homo sapiens) (UniProt P49759). Briefly: Inhibition of human CLK1 assessed as enzyme activity at 1 uM using myelin basic protein as substrate preincubated for 20 mins followed by [gamma-33P]-ATP addition and measured after 120 mins by radiometric Hot-SpotSM Kinase assay relative to control.
The target in assay [3] is T1, Serine/threonine-protein kinase DCLK2 (Homo sapiens) (UniProt Q8N568).
T1 sequence (whole entry): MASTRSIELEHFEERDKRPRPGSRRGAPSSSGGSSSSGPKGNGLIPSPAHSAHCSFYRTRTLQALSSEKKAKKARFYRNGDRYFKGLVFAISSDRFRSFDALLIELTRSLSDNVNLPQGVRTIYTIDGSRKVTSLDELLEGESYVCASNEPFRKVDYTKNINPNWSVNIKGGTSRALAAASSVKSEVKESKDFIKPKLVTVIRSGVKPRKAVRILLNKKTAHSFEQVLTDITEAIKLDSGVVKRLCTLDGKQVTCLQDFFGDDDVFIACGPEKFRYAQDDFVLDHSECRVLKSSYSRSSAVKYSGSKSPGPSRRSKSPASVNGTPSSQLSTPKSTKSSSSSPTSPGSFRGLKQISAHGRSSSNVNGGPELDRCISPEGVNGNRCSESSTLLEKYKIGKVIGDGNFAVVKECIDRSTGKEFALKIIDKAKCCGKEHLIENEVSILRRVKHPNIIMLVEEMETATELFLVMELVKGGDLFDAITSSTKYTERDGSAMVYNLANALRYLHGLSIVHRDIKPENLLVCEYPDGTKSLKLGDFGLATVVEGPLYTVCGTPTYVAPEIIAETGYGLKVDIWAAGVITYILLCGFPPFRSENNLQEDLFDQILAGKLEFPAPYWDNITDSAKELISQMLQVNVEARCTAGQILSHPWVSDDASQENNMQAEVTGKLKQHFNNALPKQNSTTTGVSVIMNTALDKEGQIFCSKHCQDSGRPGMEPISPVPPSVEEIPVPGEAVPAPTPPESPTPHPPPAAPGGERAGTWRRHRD
The assay is described as follows: Inhibition of human DCAMKL2 assessed as enzyme activity at 1 uM using KKLNRTLSFAEPG as substrate preincubated for 20 mins followed by [gamma-33P]-ATP addition and measured after 120 mins by radiometric Hot-SpotSM Kinase assay relative to control.

The target in assay [4] is Serine/threonine-protein kinase MARK1 (Homo sapiens) (UniProt Q9P0L2). Briefly: Inhibition of human MARK1 assessed as enzyme activity at 1 uM using KKKVSRSGLYRSPSMPENLNRPR as substrate preincubated for 20 mins followed by [gamma-33P]-ATP addition and measured after 120 mins by radiometric Hot-SpotSM Kinase assay relative to control.
Serine/threonine-protein kinase MARK1 (Homo sapiens), sequence (Q9P0L2 whole entry, looked up): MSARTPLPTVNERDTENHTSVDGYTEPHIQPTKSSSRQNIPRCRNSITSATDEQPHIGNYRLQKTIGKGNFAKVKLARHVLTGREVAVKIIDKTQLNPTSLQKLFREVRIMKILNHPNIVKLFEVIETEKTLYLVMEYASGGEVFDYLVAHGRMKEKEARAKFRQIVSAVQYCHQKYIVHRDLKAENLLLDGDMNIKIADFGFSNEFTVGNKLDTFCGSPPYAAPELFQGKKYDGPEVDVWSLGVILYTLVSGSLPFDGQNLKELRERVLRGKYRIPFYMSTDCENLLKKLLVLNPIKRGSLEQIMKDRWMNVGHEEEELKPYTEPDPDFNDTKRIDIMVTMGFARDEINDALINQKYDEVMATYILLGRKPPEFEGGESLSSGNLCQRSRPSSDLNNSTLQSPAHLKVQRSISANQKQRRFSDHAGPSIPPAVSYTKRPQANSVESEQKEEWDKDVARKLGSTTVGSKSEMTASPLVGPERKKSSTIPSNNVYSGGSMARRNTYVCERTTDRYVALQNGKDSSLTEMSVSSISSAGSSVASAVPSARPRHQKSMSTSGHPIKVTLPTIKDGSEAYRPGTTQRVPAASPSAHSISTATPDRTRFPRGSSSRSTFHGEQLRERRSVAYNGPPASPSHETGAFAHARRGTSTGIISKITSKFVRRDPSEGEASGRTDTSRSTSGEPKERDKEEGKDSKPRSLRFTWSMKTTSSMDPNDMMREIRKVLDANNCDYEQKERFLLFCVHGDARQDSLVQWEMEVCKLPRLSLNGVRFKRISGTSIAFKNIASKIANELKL
Assay [5] concerns the target T2, Dual specificity mitogen-activated protein kinase kinase 7 (Homo sapiens) (UniProt O14733).
T2 sequence (whole entry): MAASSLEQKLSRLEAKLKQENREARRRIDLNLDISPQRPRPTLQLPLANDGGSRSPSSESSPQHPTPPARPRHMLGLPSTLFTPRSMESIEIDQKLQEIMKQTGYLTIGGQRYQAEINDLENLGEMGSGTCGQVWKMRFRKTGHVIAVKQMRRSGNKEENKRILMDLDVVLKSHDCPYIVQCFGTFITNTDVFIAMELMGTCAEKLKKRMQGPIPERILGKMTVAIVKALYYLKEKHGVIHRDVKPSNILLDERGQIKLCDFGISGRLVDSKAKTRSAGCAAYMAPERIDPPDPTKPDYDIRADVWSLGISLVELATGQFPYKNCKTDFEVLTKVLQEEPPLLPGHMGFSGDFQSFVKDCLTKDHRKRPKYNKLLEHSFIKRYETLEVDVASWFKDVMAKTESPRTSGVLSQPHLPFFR
The assay is described as follows: Inhibition of human MKK7 assessed as enzyme activity at 1 uM using JNK (K55M) as substrate preincubated for 20 mins followed by [gamma-33P]-ATP addition and measured after 120 mins by radiometric Hot-SpotSM Kinase assay relative to control.

The target in assay [6] is Serine/threonine-protein kinase Nek6 (Homo sapiens) (UniProt Q9HC98). The assay is described as follows: Inhibition of human NEK6 assessed as enzyme activity at 1 uM using casein as substrate preincubated for 20 mins followed by [gamma-33P]-ATP addition and measured after 120 mins by radiometric Hot-SpotSM Kinase assay relative to control.
Serine/threonine-protein kinase Nek6 (Homo sapiens), sequence (Q9HC98 whole entry): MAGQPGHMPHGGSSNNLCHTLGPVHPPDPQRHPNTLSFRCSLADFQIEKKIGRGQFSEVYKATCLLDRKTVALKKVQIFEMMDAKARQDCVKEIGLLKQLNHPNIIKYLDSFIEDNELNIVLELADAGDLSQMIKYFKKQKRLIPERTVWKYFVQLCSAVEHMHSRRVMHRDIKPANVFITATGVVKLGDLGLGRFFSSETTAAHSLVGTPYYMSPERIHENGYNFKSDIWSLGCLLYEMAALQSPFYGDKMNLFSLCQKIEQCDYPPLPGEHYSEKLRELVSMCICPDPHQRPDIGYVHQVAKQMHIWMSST
Assay [7] deals with Serine/threonine-protein kinase 32C (Homo sapiens) (UniProt Q86UX6). The assay is described as follows: Inhibition of human STK32C assessed as enzyme activity at 1 uM using myelin basic protein as substrate preincubated for 20 mins followed by [gamma-33P]-ATP addition and measured after 120 mins by radiometric Hot-SpotSM Kinase assay relative to control.
Serine/threonine-protein kinase 32C (Homo sapiens), sequence (Q86UX6 whole entry): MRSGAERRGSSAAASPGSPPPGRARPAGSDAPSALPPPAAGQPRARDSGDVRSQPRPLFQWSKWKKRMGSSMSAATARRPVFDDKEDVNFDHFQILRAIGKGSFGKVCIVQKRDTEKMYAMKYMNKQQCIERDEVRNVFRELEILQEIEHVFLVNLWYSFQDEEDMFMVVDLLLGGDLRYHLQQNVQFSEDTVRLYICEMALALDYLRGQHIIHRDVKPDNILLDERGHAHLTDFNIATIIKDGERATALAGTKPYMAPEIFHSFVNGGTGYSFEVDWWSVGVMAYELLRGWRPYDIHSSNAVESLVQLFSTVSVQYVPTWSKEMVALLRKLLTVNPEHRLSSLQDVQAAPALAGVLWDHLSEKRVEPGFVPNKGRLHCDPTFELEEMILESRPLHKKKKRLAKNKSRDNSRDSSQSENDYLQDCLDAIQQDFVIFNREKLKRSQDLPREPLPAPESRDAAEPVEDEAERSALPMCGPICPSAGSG
Assay [8] addresses T3, Mitogen-activated protein kinase kinase kinase 7 (Homo sapiens) (UniProt O43318).
T3 sequence (whole entry): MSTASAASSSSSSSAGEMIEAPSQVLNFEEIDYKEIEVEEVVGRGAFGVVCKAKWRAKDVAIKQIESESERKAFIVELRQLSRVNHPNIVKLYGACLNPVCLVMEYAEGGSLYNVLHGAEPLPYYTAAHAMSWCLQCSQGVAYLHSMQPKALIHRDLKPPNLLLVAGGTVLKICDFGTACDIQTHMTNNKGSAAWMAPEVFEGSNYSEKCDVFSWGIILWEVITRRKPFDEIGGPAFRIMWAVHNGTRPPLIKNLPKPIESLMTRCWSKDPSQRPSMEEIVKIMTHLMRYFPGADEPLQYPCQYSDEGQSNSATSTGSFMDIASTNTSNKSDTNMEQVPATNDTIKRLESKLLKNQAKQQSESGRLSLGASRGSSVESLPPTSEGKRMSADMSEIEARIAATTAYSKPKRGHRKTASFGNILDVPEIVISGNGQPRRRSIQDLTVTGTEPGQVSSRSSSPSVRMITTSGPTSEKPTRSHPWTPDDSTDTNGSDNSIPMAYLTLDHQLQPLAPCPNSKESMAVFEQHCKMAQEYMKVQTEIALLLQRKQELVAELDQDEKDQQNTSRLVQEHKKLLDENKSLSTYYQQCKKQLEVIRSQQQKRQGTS
The assay is described as follows: Inhibition of human TAK1 assessed as enzyme activity at 1 uM using casein as substrate preincubated for 20 mins followed by [gamma-33P]-ATP addition and measured after 120 mins by radiometric Hot-SpotSM Kinase assay relative to control.

The target in assay [9] is Serine/threonine-protein kinase WNK1 (Homo sapiens) (UniProt Q9H4A3). The assay is described as follows: Inhibition of human WNK1 assessed as enzyme activity at 1 uM using myelin basic protein as substrate preincubated for 20 mins followed by [gamma-33P]-ATP addition and measured after 120 mins by radiometric Hot-SpotSM Kinase assay relative to control.
Serine/threonine-protein kinase WNK1 (Homo sapiens), sequence (Q9H4A3 whole entry, looked up): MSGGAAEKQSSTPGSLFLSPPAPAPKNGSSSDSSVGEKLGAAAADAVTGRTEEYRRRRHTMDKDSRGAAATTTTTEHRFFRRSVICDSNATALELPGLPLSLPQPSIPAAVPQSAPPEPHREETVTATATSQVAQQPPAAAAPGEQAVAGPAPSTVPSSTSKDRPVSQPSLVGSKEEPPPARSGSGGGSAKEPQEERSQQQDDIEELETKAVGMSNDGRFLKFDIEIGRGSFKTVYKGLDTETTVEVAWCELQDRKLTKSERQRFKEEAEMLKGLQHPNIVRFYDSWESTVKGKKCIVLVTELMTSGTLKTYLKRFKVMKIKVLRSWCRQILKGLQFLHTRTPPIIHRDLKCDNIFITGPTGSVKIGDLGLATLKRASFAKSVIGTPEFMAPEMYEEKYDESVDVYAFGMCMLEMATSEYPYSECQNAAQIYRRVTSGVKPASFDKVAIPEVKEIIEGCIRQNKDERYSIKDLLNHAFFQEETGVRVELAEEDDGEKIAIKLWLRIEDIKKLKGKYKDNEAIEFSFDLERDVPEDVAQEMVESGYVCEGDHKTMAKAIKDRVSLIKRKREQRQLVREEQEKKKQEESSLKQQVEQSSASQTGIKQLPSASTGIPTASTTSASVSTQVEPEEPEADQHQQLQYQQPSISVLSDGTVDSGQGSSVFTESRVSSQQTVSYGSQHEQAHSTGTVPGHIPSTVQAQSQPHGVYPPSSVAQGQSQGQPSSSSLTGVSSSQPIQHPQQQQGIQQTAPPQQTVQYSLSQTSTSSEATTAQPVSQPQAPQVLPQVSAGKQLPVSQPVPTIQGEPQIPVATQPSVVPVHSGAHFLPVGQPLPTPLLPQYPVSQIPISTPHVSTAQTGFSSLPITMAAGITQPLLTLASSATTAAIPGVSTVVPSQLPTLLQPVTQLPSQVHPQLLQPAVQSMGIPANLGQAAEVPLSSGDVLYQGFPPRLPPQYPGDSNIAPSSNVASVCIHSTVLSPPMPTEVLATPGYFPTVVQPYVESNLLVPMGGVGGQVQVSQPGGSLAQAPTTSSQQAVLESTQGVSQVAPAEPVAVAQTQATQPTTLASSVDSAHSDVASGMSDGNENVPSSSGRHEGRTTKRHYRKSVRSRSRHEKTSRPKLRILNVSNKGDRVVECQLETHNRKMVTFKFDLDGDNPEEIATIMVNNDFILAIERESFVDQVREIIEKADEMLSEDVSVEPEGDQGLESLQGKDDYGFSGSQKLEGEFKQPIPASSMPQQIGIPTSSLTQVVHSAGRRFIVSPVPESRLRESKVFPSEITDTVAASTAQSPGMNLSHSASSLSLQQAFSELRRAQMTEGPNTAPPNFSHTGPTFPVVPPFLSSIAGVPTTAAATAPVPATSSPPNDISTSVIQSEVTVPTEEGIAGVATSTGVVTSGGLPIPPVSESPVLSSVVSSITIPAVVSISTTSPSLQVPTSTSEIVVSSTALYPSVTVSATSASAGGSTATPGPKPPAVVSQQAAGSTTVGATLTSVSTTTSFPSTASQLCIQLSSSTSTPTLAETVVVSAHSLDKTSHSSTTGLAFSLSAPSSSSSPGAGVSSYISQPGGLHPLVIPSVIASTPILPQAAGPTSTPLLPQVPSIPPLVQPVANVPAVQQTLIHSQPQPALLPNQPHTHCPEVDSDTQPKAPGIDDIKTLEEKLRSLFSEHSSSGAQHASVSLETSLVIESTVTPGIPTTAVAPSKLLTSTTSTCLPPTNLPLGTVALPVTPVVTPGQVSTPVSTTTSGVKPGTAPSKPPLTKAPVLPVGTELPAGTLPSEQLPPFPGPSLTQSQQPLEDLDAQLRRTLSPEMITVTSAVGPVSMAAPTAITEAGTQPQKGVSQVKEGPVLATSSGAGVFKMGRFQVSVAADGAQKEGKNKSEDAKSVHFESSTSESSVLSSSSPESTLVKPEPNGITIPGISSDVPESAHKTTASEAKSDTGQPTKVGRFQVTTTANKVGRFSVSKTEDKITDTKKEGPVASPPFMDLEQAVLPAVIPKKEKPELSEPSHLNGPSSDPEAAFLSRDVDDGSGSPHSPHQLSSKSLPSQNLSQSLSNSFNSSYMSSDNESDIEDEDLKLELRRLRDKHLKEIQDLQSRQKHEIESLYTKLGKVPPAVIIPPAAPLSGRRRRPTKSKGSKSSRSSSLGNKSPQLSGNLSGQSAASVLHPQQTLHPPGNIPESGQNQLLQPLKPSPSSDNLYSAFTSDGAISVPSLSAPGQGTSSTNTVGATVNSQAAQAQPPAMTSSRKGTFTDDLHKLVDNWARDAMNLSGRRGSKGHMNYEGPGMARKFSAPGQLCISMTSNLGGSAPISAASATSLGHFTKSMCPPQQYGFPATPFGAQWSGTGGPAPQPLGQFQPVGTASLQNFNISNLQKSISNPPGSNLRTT

Casein kinase I isoform gamma-2 (Homo sapiens), sequence (P78368 whole entry, looked up, canonical isoform): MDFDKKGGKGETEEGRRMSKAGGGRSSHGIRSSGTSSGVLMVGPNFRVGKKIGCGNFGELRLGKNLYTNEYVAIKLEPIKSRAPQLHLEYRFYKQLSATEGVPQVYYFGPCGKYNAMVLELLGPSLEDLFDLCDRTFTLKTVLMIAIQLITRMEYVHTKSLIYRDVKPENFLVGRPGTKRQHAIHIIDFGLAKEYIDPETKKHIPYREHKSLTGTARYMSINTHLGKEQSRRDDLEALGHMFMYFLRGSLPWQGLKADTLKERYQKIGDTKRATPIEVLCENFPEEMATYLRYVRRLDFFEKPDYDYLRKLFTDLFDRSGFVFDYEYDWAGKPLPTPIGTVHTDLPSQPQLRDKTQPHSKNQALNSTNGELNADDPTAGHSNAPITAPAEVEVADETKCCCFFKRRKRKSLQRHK
Dual specificity protein kinase CLK1 (Homo sapiens), sequence (P49759 whole entry, looked up): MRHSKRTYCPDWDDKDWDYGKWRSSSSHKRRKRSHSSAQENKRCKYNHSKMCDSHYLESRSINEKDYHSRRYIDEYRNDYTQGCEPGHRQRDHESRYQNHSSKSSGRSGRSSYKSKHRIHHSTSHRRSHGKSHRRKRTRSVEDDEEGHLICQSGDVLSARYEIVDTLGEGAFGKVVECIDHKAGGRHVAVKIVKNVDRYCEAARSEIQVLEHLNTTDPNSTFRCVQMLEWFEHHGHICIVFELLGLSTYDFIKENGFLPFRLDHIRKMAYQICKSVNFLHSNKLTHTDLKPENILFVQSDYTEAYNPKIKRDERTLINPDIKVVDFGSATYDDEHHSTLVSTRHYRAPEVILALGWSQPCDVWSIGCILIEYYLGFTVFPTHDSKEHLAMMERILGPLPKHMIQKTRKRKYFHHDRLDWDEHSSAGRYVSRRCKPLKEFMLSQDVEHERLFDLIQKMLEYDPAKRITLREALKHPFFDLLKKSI

For `C[C@H](Nc1ncnc2nc[nH]c12)c1cc2cccc(Cl)c2c(=O)n1-c1ccccc1`, the Activity in assay [1] is 98.5%; in assay [2], 106%; in [3], 94.1%; in assay [4], 93.3%; in assay [5], 96%; in [6] it was 92.6%. In addition, the Activity was 94.3% in assay [7], 98.7% in assay [8] and 79.4% in assay [9].
Turning to `CC[C@H](Nc1ncnc2[nH]cnc12)c1nc2cccc(F)c2c(=O)n1-c1ccccc1`, the Activity in assay [1] came to 99.7%; in assay [2] it was 97.3%; in [3] it was 94.7%; in [4], 99.9%; in [5], 95.1%; in assay [6] it was 93.2%. Also, the results for the Activity in assay [7], in assay [8] and in assay [9] were 105%, 102% and 90.7%, respectively.
`CC(C)Oc1ccc(-c2nn([C@@H](C)c3oc4ccc(F)cc4c(=O)c3-c3cccc(F)c3)c3ncnc(N)c23)cc1F` [UMBRALISIB]: the Activity in assay [1] came to 104%; in assay [2], 103%; in assay [3] it was 94.7%; in assay [4], 96.2%; in assay [5], 96.9%; in assay [6], 97.7%. Moreover, the Activity in assay [7] came to 111%; in assay [8] it was 99%; in assay [9] it was 100%.

Source of the values: ChEMBL document CHEMBL5715954, “Silencing c-Myc translation as a therapeutic strategy through targeting PI3Kδ and CK1ε in hematological malignancies” (Blood, 2017).
